Structures can show the parent of a compound that is named as a salt.
Columns and labels:
human P2X4 receptor = human P2X4 receptor (Homo sapiens (Human), UniProt Q99571); experiment: P2X4 receptor antagonist activity (ATP-induced intracellular calcium, Fura-2 AM); type: cell-based; details: 1321N1 cells stably expressing human P2X4 receptor; test substance 15 minutes before addition of ATP; Fura-2 AM F340/F380; read-out: Inhibitory activity IC50
Description: The ATP receptor (human P2X4) was introduced into the 1321N1 cells, and the cells were used as a stable ATP receptor expression system. The P2X4-expressing 1321N1 cells were seeded on a 96-well plate, cultured under the conditions of 37° C. and 5% CO2 for 24 hours, and used for calcium measurement. […] For the measurement, a microplate reader, Fluostar Optima (BMG Labtech), was used. The light emitted from a xenon lamp was passed through 340 nm and 380 nm filters, respectively, and irradiated on the cells, fluorescences of 510 nm, F340 and F380, emitted from the cells were measured, and change of the ratio F340/F380 was used as an index of change of intracellular calcium level. The measurement was performed by adding ATP to each well at a final concentration of 1 μM, and observing the ATP-induced Ca^2+ response over time.
The 1321N1 cells stably expressing human P2X4 receptor were seeded on a 96-well plate, cultured under the conditions of 37° C. and 5% CO2 for 24 hours, and then used for intracellular calcium measurement. Fura-2 AM, which is a calcium fluorescent indicator, was used for the intracellular calcium measurement. […] The ratio of fluorescence values obtained with excitation lights of 340 nm and 380 nm was used as an index of the change of intracellular calcium level, and the inhibitory activity of the test substance was calculated on the basis of the comparison with the value obtained in the absence of the test substance (control).

[1] = system: mouse neuropathic pain model; experiment: Analgesic activity in mouse neuropathic pain model (von Frey filament test); type: in vivo; details: for pain threshold of diseased limb (von Frey filament test): oral administration of 30 mg/kg, neuropathic pain model mice, versus vehicle administration group; for analgesic activity: oral administration, mouse neuropathic pain model (FIG. 1)
Description: Mouse neuropathic pain model was prepared according to the method of Tozaki-Saitoh H. et al. (Tozaki-Saitoh H., Tsuda M., Miyata H., Ueda K., Kohsaka S. and Inoue K.; P2Y12 Receptors in Spinal Microglia Are Required for Neuropathic Pain after Peripheral Nerve Injury. Neuroscience, 28(19): 4949-4956 (2008)). Under isoflurane anesthesia, back hair of mice was extensively shaved, the shaved parts were wiped with rubbing alcohol, and the mice were fixed in the prone position on a heating pad. The skins were cut and opened along the dorsal median line on the upper and lower sides of the head end of the sacroiliac bone in a length of about 1 cm each, with confirming the head end of the bone with fingers. The left lateral paravertebral muscle was separated in the sacral region, and then the ligament was separated. The sacroiliae rim and the upper part thereof were cut and opened along the pyramid, and the transverse process of the first sacral vertebra (S1) was confirmed. The transverse process of S1 was removed, the fourth lumber nerve (L4) running just under the transverse process was confirmed and cut, and the operative wound was sutured.
The pain threshold (paw withdrawal threshold (g)) was measured by stimulating the soles of mice with each of seven von Frey filaments (Stoelting Co., TOUCH-TEST SENSORY EVALUATOR) that gave different stimulation strengths, and determining presence or absence of withdrawal response. The 50% threshold was calculated according to the up down method with reference to the method of Chaplan et al. (Chaplan S R, Bach F W, Pogrel J W, Chung J M, Yaksh T L: Quantitative assessment of tactile allodynia in the rat paw, J. Neurosci. Method, 53:55-63 (1994)).
For evaluation of efficacy, each of the compounds described in Examples 21 and 42 was orally administered to the neuropathic pain model mice with a sonde for oral administration in mice, and effect thereof on the pain threshold measured in the von Frey filament test was observed.

human P2X4 receptor, sequence (Q99571 whole entry): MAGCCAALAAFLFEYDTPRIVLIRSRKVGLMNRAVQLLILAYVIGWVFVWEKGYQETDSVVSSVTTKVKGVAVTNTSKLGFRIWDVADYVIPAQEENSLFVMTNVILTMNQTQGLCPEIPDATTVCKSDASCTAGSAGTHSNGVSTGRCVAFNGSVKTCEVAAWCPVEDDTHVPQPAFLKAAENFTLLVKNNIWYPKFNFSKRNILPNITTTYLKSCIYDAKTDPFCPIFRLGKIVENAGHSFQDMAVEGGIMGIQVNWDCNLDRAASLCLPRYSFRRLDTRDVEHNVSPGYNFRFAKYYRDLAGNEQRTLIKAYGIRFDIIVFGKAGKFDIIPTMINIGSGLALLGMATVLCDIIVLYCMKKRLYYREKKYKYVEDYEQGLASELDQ

Compound	IC50 (human P2X4 receptor) [nM]	pain threshold of diseased limb (von Frey filament test) [1]	analgesic activity [1]
Cl.O=C1CC(=O)N(c2ccc(-n3ccnc3CCc3ccccc3)cc2)c2ccc3ccccc3c2N1 [Example 21, 5-[4-(2-Phenethyl-1H-imidazol-1-yl)phenyl]-1H-naphtho[1,2-b][1,4]diazepine-2,4(3H,5H)-dione hydrochloride]	78	increased the pain threshold of diseased limb	superior analgesic activity
COc1cccc(CCc2nccn2-c2ccc(N3C(=O)CC(=O)Nc4c3ccc3ccccc43)cc2)c1.Cl [Example 42, 5-[4-[2-(3-Methoxyphenethyl)-1H-imidazol-1-yl]phenyl]-1H-naphtho[1,2-b][1,4]diazepine-2,4(3H,5H)-dione hydrochloride]	92	increased the pain threshold of diseased limb	superior analgesic activity
O=C1CC(=O)N(c2ccc(-n3ccnc3CCc3ccccc3F)cc2)c2ccc3c(c2N1)CCC3 [Example 67, 5-[4-[2-(2-Fluorophenethyl)-1H-imidazol-1-yl]phenyl]-5,8,9,10-tetrahydroindeno[4,5-b][1,4]diazepine-2,4(1H,3H)-dione]	53		
O=C1CC(=O)N(c2ccc(-n3ccnc3COc3ccccc3)cc2)c2ccc3ccccc3c2N1 [Example 68, 5-[4-[2-(Phenoxymethyl)-1H-imidazol-1-yl]phenyl]-1H-naphtho[1,2-b][1,4]diazepine-2,4(3H,5H)-dione]	790		
CC(C)(Cc1nnnn1-c1ccc(N2C(=O)CC(=O)Nc3c2ccc2ccccc32)cc1)c1ccccn1 [Example 69, 5-[4-[5-[2-Methyl-2-(pyridin-2-yl)propyl]-1H-tetrazol-1-yl]phenyl]-1H-naphtho[1,2-b][1,4]diazepine-2,4(3H,5H)-dione hydrochloride]	5400		
O=C1CC(=O)N(c2ccc(-n3ccnc3CCc3ccccn3)cc2)c2ccc3ccccc3c2N1 [Example 71, 5-[4-[[2-(Pyridin-2-yl)ethyl]-1H-imidazol-1-yl]phenyl]-1H-naphtho[1,2-b][1,4]diazepine-2,4(3H,5H)-dione dihydrochloride]	590		
O=C1CC(=O)N(c2ccc(-c3nc[nH]c3-c3ccccc3)cc2)c2ccc3ccccc3c2N1 [Example 72, 5-[4-(5-Phenyl-1H-imidazol-4-yl)phenyl]-1H-naphtho[1,2-b][1,4]diazepine-2,4(3H,5H)-dione hydrochloride]	3400		
CC1(C)CN(c2ccc(N3C(=O)CC(=O)Nc4c3ccc3ccccc43)cc2)C(CCc2ccccc2)=N1 [Example 74, 5-[4-(4,4-Dimethyl-2-phenethyl-4,5-dihydro 1H-imidazol-1-yl)phenyl]-1H-naphtho[1,2-b][1,4]diazepine-2,4(3H,5H)-dione hydrochloride]	2500		
O=C1CC(=O)N(c2ccc(-n3ccnc3CCc3cccc(F)c3)cc2)c2ccc3c(c2N1)CCC3 [Example 79, 5-[4-[2-(3-Fluorophenethyl)-1H-imidazol-1-yl]phenyl]-5,8,9,10-tetrahydroindeno[4,5-b][1,4]diazepine-2,4(1H,3H)-dione hydrochloride]	39		
O=C1CC(=O)N(c2ccc(-n3ccnc3CNc3ccccc3)cc2)c2ccc3ccccc3c2N1 [Example 80, 5-[4-[2-[(Phenylamino)methyl]-1H-imidazol-1-yl]phenyl]-1H-naphtho[1,2-b][1,4]diazepine-2,4(3H,5H)-dione]	1300		
COc1c(F)cccc1CCc1nccn1-c1ccc(N2C(=O)CC(=O)Nc3c2ccc2ccccc32)cc1 [Example 83, 5-[4-[(2-(3-Fluoro-2-methoxyphenyl)ethyl)-1H-imidazol-1-yl]phenyl]-1H-naphtho[1,2-b][1,4]diazepine-2,4(3H,5H)-dione hydrochloride]	87		

From US9873683B2, “P2X4 receptor antagonist” (NIPPON CHEMIPHAR CO., LTD., priority 2013, dated 2018)
